How the values were obtained:
Format in all cases: in vivo
Corn = assay: Control experiment, test in post-emergence stage, crop safety; parameters: key: Level 10: completely dead; Level 9: above 90% growth inhibition rate; Level 8: above 80% growth inhibition rate; Level 7: above 70% growth inhibition rate; Level 6: above 60% growth inhibition rate; Level 5: above 50% growth inhibition rate; Level 4: above 30% growth inhibition rate; Level 3: above 20% growth inhibition rate; Level 2: above 10% growth inhibition rate; Level 1: above 1-10% growth inhibition rate; Level 0: no effect; conditions: 5-6 leaf stage, 15 g/ha, observe time 25 day
Experimental: (§1) Test in post-emergence stage: seeds of monocotyledonous weeds and corn were put into a plastic pot loaded with soil, covered with 0.5-2 cm soil, and allowed to grow in good greenhouse environment. The test plants were treated at 5-6 leaf stage 4 weeks after sowing. The test compounds of the present invention were dissolved with acetone respectively, then added with tween 80, diluted by a certain amount of water to reach a certain concentration. The solution was sprayed to the plants by a spray tower. The test application rate was 15 g/ha and the observe time was 25 day.

Setaria viridis = assay: Control experiment, test in post-emergence stage; conditions: 5-6 leaf stage, 15 g/ha, observe time 25 day
Experimental: as §1

Digitaria sanguinalis = assay: Control experiment, test in post-emergence stage; conditions: 5-6 leaf stage, 15 g/ha, observe time 25 day
Experimental: as §1

Echinochloa crus-galli [1] = assay: Control experiment, test in post-emergence stage; conditions: 5-6 leaf stage, 15 g/ha, observe time 25 day
Experimental: as §1

Rice = assay: Transplanted rice safety evaluation; parameters: key: Level 10: completely dead; Level 9: above 90% growth inhibition rate; Level 8: above 80% growth inhibition rate; Level 7: above 70% growth inhibition rate; Level 6: above 60% growth inhibition rate; Level 5: above 50% growth inhibition rate; Level 4: above 30% growth inhibition rate; Level 3: above 20% growth inhibition rate; Level 2: above 10% growth inhibition rate; Level 1: above 1-10% growth inhibition rate; Level 0: no effect; conditions: transplanted 3 leaf stage japonica rice, 21 days after treatment
Experimental: In addition, the rice field soil that loaded into the 1/1,000,000 ha pot was leveled to keep water storage at 3-4 cm depth. The 3 leaf stage rice (japonica rice) was transplanted at 3 cm of transplanting depth the next day. The compound of the present invention was treated by the same way after 5 days of transplantation. The fertility condition of Echinochloa, Scirpus juncoides, Bidens tripartite and Sagittaria trifolia 14 days after the treatment of the compound of the invention and the fertility condition of rice 21 days after the treatment of the compound of the invention respectively with the naked eye.

Scirpus juncoides = assay: Weed control effect evaluation in transplanted rice field; parameters: key: Level 10: completely dead; Level 9: above 90% growth inhibition rate; Level 8: above 80% growth inhibition rate; Level 7: above 70% growth inhibition rate; Level 6: above 60% growth inhibition rate; Level 5: above 50% growth inhibition rate; Level 4: above 30% growth inhibition rate; Level 3: above 20% growth inhibition rate; Level 2: above 10% growth inhibition rate; Level 1: above 1-10% growth inhibition rate; Level 0: no effect; conditions: transplanted rice field pot test, 14 days after treatment
Experimental: (§2) Rice field soil was loaded into a 1/1,000,000 ha pot. The seeds of Echinochloa, Scirpus juncoides, Bidens tripartite and Sagittaria trifolia were sowed and gently covered with soil, then left to stand still in greenhouse in the state of 0.5-1 cm of water storage. The tuber of Sagittaria trifolia was planted in the next day or 2 days later. It was kept at 3-4 cm of water storage thereafter. The weeds were treated by dripping the WP or SC water diluents prepared according to the common preparation method of the compounds of the present invention with pipette homogeneously to achieve specified effective amount when Echinochloa, Scirpus juncoides and Bidens tripartite reached 0.5 leaf stage and Sagittaria trifolia reached the time point of primary leaf stage.
(§3) The fertility condition of Echinochloa, Scirpus juncoides, Bidens tripartite and Sagittaria trifolia 14 days after the treatment of the compound of the invention and the fertility condition of rice 21 days after the treatment of the compound of the invention respectively with the naked eye.
(§4) The seeds of Echinochloa crus-galli, Scirpus juncoides and Monochoria vaginalis were collected from Heilongjing and Jiangsu Province of China.

Monochoria vaginalis = assay: as above; parameters: key: Level 10: completely dead; Level 9: above 90% growth inhibition rate; Level 8: above 80% growth inhibition rate; Level 7: above 70% growth inhibition rate; Level 6: above 60% growth inhibition rate; Level 5: above 50% growth inhibition rate; Level 4: above 30% growth inhibition rate; Level 3: above 20% growth inhibition rate; Level 2: above 10% growth inhibition rate; Level 1: above 1-10% growth inhibition rate; Level 0: no effect; conditions: transplanted rice field pot test, 14 days after treatment
Experimental: as §2, §3, §4

Echinochloa crus-galli [2] = assay: as above; parameters: key: Level 10: completely dead; Level 9: above 90% growth inhibition rate; Level 8: above 80% growth inhibition rate; Level 7: above 70% growth inhibition rate; Level 6: above 60% growth inhibition rate; Level 5: above 50% growth inhibition rate; Level 4: above 30% growth inhibition rate; Level 3: above 20% growth inhibition rate; Level 2: above 10% growth inhibition rate; Level 1: above 1-10% growth inhibition rate; Level 0: no effect; conditions: transplanted rice field pot test, 14 days after treatment
Experimental: as §2, §3, §4

[3] = test system: Monocotyledonous and dicotyledonous weed; assay: Post-emergence test experiment, weed control effect (Table 2); parameters: key to weed control effect, Setaria viridis (level) / weed control effect, Rorippa indica (level) / weed control effect, Abutilon theophrasti (level) / weed control effect, Echinochloa crus-galli (level) / weed control effect, Digitaria sanguinalis (level): Level 10: completely dead; Level 9: above 90% growth inhibition rate; Level 8: above 80% growth inhibition rate; Level 7: above 70% growth inhibition rate; Level 6: above 60% growth inhibition rate; Level 5: above 50% growth inhibition rate; Level 4: above 30% growth inhibition rate; Level 3: above 20% growth inhibition rate; Level 2: above 10% growth inhibition rate; Level 1: above 1-10% growth inhibition rate; Level 0: no effect; conditions: 3 weeks after spraying, greenhouse
Method in brief: (§5)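 Weed and crop seeds (wheat, corn, rice, soybean, cotton, oilseed, millet, sorghum) grown in soil in greenhouse; sprayed at 2-3 leaf stage, 2-3 weeks after sowing, with compound in acetone/Tween 80/water. Effects assessed after 3 weeks further greenhouse culture.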

[4] = test system: main crop (wheat, corn, rice, soybean, cotton, oilseed, millet and sorghum); assay: Post-emergence test experiment, main crops (Table 2); parameters: key: Level 10: completely dead; Level 9: above 90% growth inhibition rate; Level 8: above 80% growth inhibition rate; Level 7: above 70% growth inhibition rate; Level 6: above 60% growth inhibition rate; Level 5: above 50% growth inhibition rate; Level 4: above 30% growth inhibition rate; Level 3: above 20% growth inhibition rate; Level 2: above 10% growth inhibition rate; Level 1: above 1-10% growth inhibition rate; Level 0: no effect; conditions: 3 weeks after spraying, greenhouse
Method in brief: as §5

SMILES	Corn (safety, activity level) (Corn)	Setaria viridis (activity level) (Setaria viridis)	Digitaria sanguinalis (activity level) (Digitaria sanguinalis)	Echinochloa crus-galli (activity level) (Echinochloa crus-galli [1])	Rice (safety, activity level) (Rice; application rate 60 g/ha)	Weed control effect, Scirpus juncoides (activity level) (Scirpus juncoides; application rate 60 g/ha)	Weed control effect, Monochoria vaginalis (activity level) (Monochoria vaginalis; application rate 60 g/ha)	Weed control effect, Echinochloa crus-galli (activity level) (Echinochloa crus-galli [2]; application rate 60 g/ha)	weed control effect, Abutilon theophrasti (level) ([3]; 30 g/ha)	weed control effect, Bidens pilosa (level) ([3]; 30 g/ha)	weed control effect, Digitaria sanguinalis (level) ([3]; 30 g/ha)	weed control effect, Echinochloa crus-galli (level) ([3]; 30 g/ha)	weed control effect, Rorippa indica (level) ([3]; 30 g/ha)	weed control effect, Setaria viridis (level) ([3]; 30 g/ha)	effect on crop, corn (level) ([4]; 30 g/ha)	effect on crop, rice (level) ([4]; 30 g/ha)	effect on crop, wheat (level) ([4]; 30 g/ha)	further results
Cc1nn(C)c(O)c1C(=O)c1ccc(S(C)(=O)=O)c(COCC(F)(F)F)c1Cl [B, reference compound]	0	7 (Level 7: above 70% growth inhibition rate)	5 (Level 5: above 50% growth inhibition rate)	6 (Level 6: above 60% growth inhibition rate)	–	–	–	–	–	–	–	–	–	–	–	–	–	–
COCc1c(S(C)(=O)=O)ccc(C(=O)c2c(C)nn(C)c2O)c1Cl [A, reference compound]	1 (Level 1: above 1-10% growth inhibition rate)	7 (Level 7: above 70% growth inhibition rate)	6 (Level 6: above 60% growth inhibition rate)	7 (Level 7: above 70% growth inhibition rate)	–	–	–	–	–	–	–	–	–	–	–	–	–	–
C#CCOCc1c(S(C)(=O)=O)ccc(C(=O)c2cnn(C(C)C)c2OC(=O)c2cn(C)nc2C)c1Cl [Compound 100]	–	–	–	–	0	10	8 (Level 8: above 80% growth inhibition rate)	10	7 (Level 7: above 70% growth inhibition rate)	7 (Level 7: above 70% growth inhibition rate)	7 (Level 7: above 70% growth inhibition rate)	10	10	10	1 (Level 1: above 1-10% growth inhibition rate)	5 (Level 5: above 50% growth inhibition rate)	0	–
Cc1nn(C)cc1C(=O)Oc1c(C(=O)c2ccc(S(C)(=O)=O)c(Cn3cc(Cl)cn3)c2Cl)c(C2CC2)nn1C [Compound 10]	–	–	–	–	–	–	–	–	–	–	–	–	–	–	–	–	–	Rice (safety, activity level) (Rice; application rate 500 g/ha): 1 (Level 1: above 1-10% growth inhibition rate); Weed control effect, Scirpus juncoides (activity level) (Scirpus juncoides; application rate 500 g/ha): 10; Weed control effect, Monochoria vaginalis (activity level) (Monochoria vaginalis; application rate 500 g/ha): 10; Weed control effect, Echinochloa crus-galli (activity level) (Echinochloa crus-galli [2]; application rate 500 g/ha): 10; weed control effect, Abutilon theophrasti (level) ([3]; 120 g/ha): 7 (Level 7: above 70% growth inhibition rate); weed control effect, Bidens pilosa (level) ([3]; 120 g/ha): 9 (Level 9: above 90% growth inhibition rate); weed control effect, Digitaria sanguinalis (level) ([3]; 120 g/ha): 2 (Level 2: above 10% growth inhibition rate); weed control effect, Echinochloa crus-galli (level) ([3]; 120 g/ha): 10; weed control effect, Rorippa indica (level) ([3]; 120 g/ha): 10; weed control effect, Setaria viridis (level) ([3]; 120 g/ha): 7 (Level 7: above 70% growth inhibition rate); effect on crop, corn (level) ([4]; 120 g/ha): 0; effect on crop, rice (level) ([4]; 120 g/ha): 1 (Level 1: above 1-10% growth inhibition rate); effect on crop, wheat (level) ([4]; 120 g/ha): 0
CCOCCOCc1c(S(C)(=O)=O)ccc(C(=O)c2cnn(C)c2OC(=O)c2cnn(C)c2)c1Cl [Compound 68]	–	–	–	–	1 (Level 1: above 1-10% growth inhibition rate)	10	10	7 (Level 7: above 70% growth inhibition rate)	7 (Level 7: above 70% growth inhibition rate)	7 (Level 7: above 70% growth inhibition rate)	7 (Level 7: above 70% growth inhibition rate)	10	10	9 (Level 9: above 90% growth inhibition rate)	0	3 (Level 3: above 20% growth inhibition rate)	0	–
C#CCOCc1c(S(C)(=O)=O)ccc(C(=O)c2c(C3CC3)nn(C)c2OC(=O)c2cnn(C)c2)c1Cl [Compound 60]	–	–	–	–	2 (Level 2: above 10% growth inhibition rate)	10	10	10	6 (Level 6: above 60% growth inhibition rate)	4 (Level 4: above 30% growth inhibition rate)	7 (Level 7: above 70% growth inhibition rate)	10	7 (Level 7: above 70% growth inhibition rate)	7 (Level 7: above 70% growth inhibition rate)	0	5 (Level 5: above 50% growth inhibition rate)	0	–
